The text below walks through data of patent US10125100B2, “Kinase inhibitors” (Respivert Limited, priority 2014, dated 2018).

The series relates to Jurkat cells. Put plainly: (r) Cell cytotoxicity assay. In kind it is cell-based, human. As to conditions: 24 hours. On the procedure: 1×10^5 Jurkat cells (immortalised human T lymphocytes) are added to the appropriate number of wells of a 96 well plate in 100 μL of media (RPMI supplemented with 10% foetal bovine serum). 1 μL of DMSO control (final concentration 1.0% v/v) or test compound (final concentration 20, 5 or 1 μg/mL) is added to the wells and incubated at 37° C., 5% CO2. After 24 hours, the plate is centrifuged at 1200 rpm for 3 minutes and the supernatant discarded. Cells are then resuspended in 150 μL (final concentration 7.5 μg/mL) of propidium iodide (PI) in PBS and incubated at 37° C., 5% CO2 for 15 minutes. After 15 minutes, cells are analysed by flow cytometry (BD accuri) using the FL3 window. The % viability is calculated as the % of cells that are PI negative in the test wells normalised to the DMSO control.

The structures appear in SMILES notation.

Turning to `COc1cc(Nc2cc(Oc3ccc(NC(=O)Nc4cc(C(C)(C)C)cc(NS(C)(=O)=O)c4OC)c4ccccc34)ccn2)ccc1C(=O)NCCN1CCN(C)CC1(C)C` [17(bi), 4-((4-((4-(3-(5-(tert-Butyl)-2-methoxy-3-(methylsulfonamido)phenyl)ureido)naphthalen-1-yl)oxy)pyridin-2-yl)amino)-2-methoxy-N-(2-(2,2,4-trimethylpiperazin-1-yl)ethyl)benzamide], the “% Viability at 1 μg/mL” value amounted to 97.4%, the “% Viability at 5 μg/mL” value was found to be 0.8% and the “% Viability at 20 μg/mL” value is reported as 0.6%.

For `COc1c(NC(=O)Nc2ccc(Oc3ccnc(Nc4ccc(C(=O)NCCCN5CCOCC5)c(O)c4)c3)c3ccccc23)cc(C(C)(C)C)cc1NS(C)(=O)=O` [Example 29, 4-((4-((4-(3-(5-(tert-Butyl)-2-methoxy-3-(methylsulfonamido)phenyl)ureido)naphthalen-1-yl)oxy)pyridin-2-yl)amino)-2-hydroxy-N-(3-morpholinopropyl)benzamide], the “% Viability at 1 μg/mL” value amounted to 101.2%, the “% Viability at 5 μg/mL” value is listed as 46.6% and the “% Viability at 20 μg/mL” value was found to be 2.0%.

Turning to `COc1c(NC(=O)Nc2ccc(Oc3ccnc(Nc4ccc(C(=O)NCCOCCOCCO)c(N(C)C)c4)c3)c3ccccc23)cc(C(C)(C)C)cc1NS(C)(=O)=O` [17(bt), 4-((4-((4-(3-(5-(tert-Butyl)-2-methoxy-3-(methylsulfonamido)phenyl)ureido)naphthalen-1-yl)oxy)pyridin-2-yl)amino)-2-(dimethylamino)-N-(2-(2-(2-hydroxyethoxy)ethoxy)ethyl) benzamide], the “% Viability at 1 μg/mL” value is 89.8%, the “% Viability at 5 μg/mL” value was determined as 39.9% and the “% Viability at 20 μg/mL” value stood at 22.5%.

In the case of `COc1cc(Nc2cc(Oc3ccc(NC(=O)Nc4cc(C(C)(C)C)cc(NS(C)(=O)=O)c4OC)c4ccccc34)ccn2)cc(OC)c1C(=O)NCCCN1CCN(C)CC1` [17(au), 4-((4-((4-(3-(5-(tert-Butyl)-2-methoxy-3-(methylsulfonamido)phenyl)ureido)naphthalen-1-yl)oxy)pyridin-2-yl)amino)-2,6-dimethoxy-N-(3-(4-methylpiperazin-1-yl)propyl)benzamide], the “% Viability at 1 μg/mL” value worked out at 94.0%, the “% Viability at 5 μg/mL” value is on record as 91.8% and the “% Viability at 20 μg/mL” value is 80.6%.

As to `COc1cc(Nc2cc(Oc3ccc(NC(=O)Nc4cc(C(C)(C)C)cc(NS(C)(=O)=O)c4OC)c4ccccc34)ccn2)ccc1C(=O)NCCC1CCNCC1` [Example 27, 4-((4-((4-(3-(5-(tert-Butyl)-2-methoxy-3-(methylsulfonamido)phenyl)ureido)naphthalen-1-yl)oxy)pyridin-2-yl)amino)-2-methoxy-N-(2-(piperidin-4-yl)ethyl)benzamide], the “% Viability at 1 μg/mL” value was 101.2%, the “% Viability at 5 μg/mL” value turned out to be 94.9% and the “% Viability at 20 μg/mL” value is given as 1.7%.

As for `COc1cc(Nc2cc(Oc3ccc(NC(=O)Nc4cc(C(C)(C)C)cc(NS(C)(=O)=O)c4OC)c4ccccc34)ccn2)ccc1CP(C)(=O)O` [Example 70, (4-((4-((4-(3-(5-(tert-Butyl)-2-methoxy-3-(methylsulfonamido)phenyl)ureido)naphthalen-1-yl)oxy)pyridin-2-yl)amino)-2-methoxybenzyl)(methyl)phosphinic acid], the “% Viability at 1 μg/mL” value amounted to 95.3%, the “% Viability at 5 μg/mL” value is reported as 91.9% and the “% Viability at 20 μg/mL” value came to 63.8%.

As to `COc1cc(Nc2cc(Oc3ccc(NC(=O)Nc4cc(C(C)(C)C)cc(NS(C)(=O)=O)c4OC)c4ccccc34)ccn2)cc(OC)c1C(=O)N1CCN(CCN(C)C)CC1` [17(cg), N-(5-(tert-Butyl)-3-(3-(4-((2-((4-(4-(2-(dimethylamino)ethyl)piperazine-1-carbonyl)-3,5-dimethoxyphenyl)amino)pyridin-4-yl)oxy)naphthalen-1-yl)ureido)-2-methoxyphenyl)methane sulfonamide], the “% Viability at 1 μg/mL” value was found to be 96.1%, the “% Viability at 5 μg/mL” value stood at 95.3% and the “% Viability at 20 μg/mL” value came to 92.3%.
